Starred links: 1 amine or outer side, 2 acyl side, 3 side chain; linkers in the order of their positions; H or OH if unused. Non-standard residues stand in square brackets, D forms with d. Residues, ends and D or L forms follow the SMILES beside them. Groups on a side chain read outwards from the residue. *: point of attachment. C20 diacid = O=C(O)CCCCCCCCCCCCCCCCCCC(=O)*; C18 diacid = O=C(O)CCCCCCCCCCCCCCCCC(=O)*; γGlu = O=C(O)[C@H](CCC(=O)[*:2])N[*:1]; αMeF = C[C@](N)(Cc1ccccc1)C(=O)O; AEEA = NCCOCCOCC(=O)O; Aib = CC(C)(N)C(=O)O

T1 sequence (P43220 24-463): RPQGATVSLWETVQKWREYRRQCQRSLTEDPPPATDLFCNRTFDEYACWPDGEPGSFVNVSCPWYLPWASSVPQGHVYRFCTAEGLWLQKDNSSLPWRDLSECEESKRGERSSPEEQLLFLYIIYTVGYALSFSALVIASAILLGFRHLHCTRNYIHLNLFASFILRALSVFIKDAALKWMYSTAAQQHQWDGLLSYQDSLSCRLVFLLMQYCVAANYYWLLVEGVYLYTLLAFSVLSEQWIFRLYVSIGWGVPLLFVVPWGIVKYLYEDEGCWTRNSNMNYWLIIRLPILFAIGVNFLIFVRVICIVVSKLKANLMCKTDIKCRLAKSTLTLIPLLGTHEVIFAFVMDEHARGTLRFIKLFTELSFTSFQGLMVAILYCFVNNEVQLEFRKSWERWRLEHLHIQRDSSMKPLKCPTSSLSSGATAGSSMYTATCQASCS

The first experiment concerns the target T1, human GLP-1 receptor (hGLP-1R) (Homo sapiens, UniProt P43220).
T1 construct: expressed in transfected cells; host or cells: CHO
Kind of experiment: cAMP production (HTRF) in CHO cells expressing human GLP-1 receptor. Format: cell-based. The conditions noted are these: Table 8; % GLP-1R activity relative to GLP-1 / % GlucR activity relative to glucagon. The procedure:
Cells were re-suspended in assay buffer at a batch-dependent optimized concentration (typically hGLP-1R cells at 1×10^5 cells/mL, hGCGR cells at 2×10^5 cells/mL).
Cells were added to the assay plate using a multidrop dispenser and incubated at room temperature for 30 minutes before measuring the cAMP level using a cAMP dynamic 2 homogeneous time resolved Fluorescence (HTRF) kit (Cisbio Bioassays #62AM4PEJ) following the two-step protocol as per manufacturer's recommendations. In brief, anti-cAMP cryptate (donor fluorophore) and cAMP-d2 (acceptor fluorophore) were made up separately by diluting each 1 in 20 in conjugate and lysis buffer provided in the kit. Anti-cAMP cryptate was added to all wells of the assay plate, followed by cAMP-d2 added to all wells except non-specific binding (NSB) wells (to which conjugate and lysis buffer was added).
Data was transformed to % Delta F as described in the manufacturer's guidelines and analyzed by 4-parameter logistic fit to determine EC50 values.
For `CC[C@H](C)[C@H](NC(=O)[C@H](Cc1c[nH]c2ccccc12)NC(=O)[C@H](CCCCNC(=O)COCCOCCNC(=O)COCCOCCNC(=O)CC[C@H](NC(=O)CCCCCCCCCCCCCCCCC(=O)O)C(=O)O)NC(=O)[C@@H](NC(=O)[C@H](Cc1ccccc1)NC(=O)[C@H](CC(=O)O)NC(=O)[C@H](CCC(N)=O)NC(=O)[C@H](C)NC(=O)C(C)(C)NC(=O)[C@H](CCCNC(=N)N)NC(=O)[C@H](CO)NC(=O)[C@H](CC(=O)O)NC(=O)[C@H](CC(C)C)NC(=O)[C@](C)(Cc1ccccc1)NC(=O)[C@H](CCCCN)NC(=O)[C@H](CO)NC(=O)[C@@H](NC(=O)[C@H](CC(=O)O)NC(=O)[C@H](CO)NC(=O)[C@@H](NC(=O)[C@](C)(Cc1ccccc1)NC(=O)[C@H](CO)NC(=O)CNC(=O)[C@H](Cc1c[nH]cn1)NC(=O)C(C)(C)NC(=O)[C@@H](N)Cc1c[nH]cn1)[C@@H](C)O)C(C)C)C(C)C)C(=O)N[C@@H](C)C(=O)N[C@@H](CC(N)=O)C(=O)N[C@H](C(N)=O)[C@@H](C)O` [Peptide 365, H(Aib)HGS(αMePhe)TSDVSK(αMePhe)LDSR(Aib)AQDFVK(O2Oc-O2Oc-γE-C18diacid)24WIANT-amide] (H-H[Aib]HGS[αMeF]TSDVSK[αMeF]LDSR[Aib]AQDFVK([AEEA-AEEA-γGlu-C18 diacid])WIANT-NH2; N-terminus assumed), the “% Relative Potency Ratio” value turned out to be 0.3.
For `CC[C@H](C)[C@H](NC(=O)[C@H](Cc1c[nH]c2ccccc12)NC(=O)[C@H](CCCCNC(=O)COCCOCCNC(=O)COCCOCCNC(=O)CC[C@H](NC(=O)CCCCCCCCCCCCCCCCCCC(=O)O)C(=O)O)NC(=O)[C@@H](NC(=O)[C@H](Cc1ccccc1)NC(=O)[C@H](CC(=O)O)NC(=O)[C@H](CCC(N)=O)NC(=O)[C@H](C)NC(=O)[C@H](C)NC(=O)[C@H](CCC(N)=O)NC(=O)[C@H](CO)NC(=O)[C@H](CC(=O)O)NC(=O)[C@H](CC(C)C)NC(=O)[C@](C)(Cc1ccccc1)NC(=O)[C@H](CCCCN)NC(=O)[C@H](CO)NC(=O)[C@@H](NC(=O)[C@H](CC(=O)O)NC(=O)[C@H](CO)NC(=O)[C@@H](NC(=O)[C@](C)(Cc1ccccc1)NC(=O)[C@H](CO)NC(=O)CNC(=O)[C@H](Cc1c[nH]cn1)NC(=O)C(C)(C)NC(=O)[C@@H](N)Cc1c[nH]cn1)[C@@H](C)O)C(C)C)C(C)C)C(=O)N[C@@H](C)C(=O)N[C@@H](CC(N)=O)C(=O)N[C@H](C(N)=O)[C@@H](C)O` [Peptide 356] (H-H[Aib]HGS[αMeF]TSDVSK[αMeF]LDSQAAQDFVK([AEEA-AEEA-γGlu-C20 diacid])WIANT-NH2), the “% Relative Potency Ratio” value is 2.1.
Regarding `CC[C@H](C)[C@H](NC(=O)[C@H](Cc1c[nH]c2ccccc12)NC(=O)[C@H](CCCCNC(=O)COCCOCCNC(=O)COCCOCCNC(=O)CC[C@H](NC(=O)CCCCCCCCCCCCCCCCC(=O)O)C(=O)O)NC(=O)[C@@H](NC(=O)[C@H](Cc1ccccc1)NC(=O)[C@H](CC(=O)O)NC(=O)[C@H](CCC(N)=O)NC(=O)[C@H](C)NC(=O)[C@H](C)NC(=O)[C@H](CCC(N)=O)NC(=O)[C@H](CO)NC(=O)[C@H](CC(=O)O)NC(=O)[C@H](CC(C)C)NC(=O)[C@](C)(Cc1ccccc1)NC(=O)[C@H](CCCCN)NC(=O)[C@H](CO)NC(=O)[C@@H](NC(=O)[C@H](CC(=O)O)NC(=O)[C@H](CO)NC(=O)[C@@H](NC(=O)[C@](C)(Cc1ccccc1)NC(=O)[C@H](CO)NC(=O)CNC(=O)[C@H](Cc1c[nH]cn1)NC(=O)C(C)(C)NC(=O)[C@@H](N)Cc1c[nH]cn1)[C@@H](C)O)C(C)C)C(C)C)C(=O)N[C@@H](C)C(=O)N[C@@H](CC(N)=O)C(=O)N[C@H](C(=O)NCC(=O)NCC(N)=O)[C@@H](C)O` [Peptide 350] (H-H[Aib]HGS[αMeF]TSDVSK[αMeF]LDSQAAQDFVK([AEEA-AEEA-γGlu-C18 diacid])WIANTGG-NH2; N-terminus assumed), the “% Relative Potency Ratio” value turned out to be 8.6.
For `CC[C@H](C)[C@H](NC(=O)[C@H](Cc1c[nH]c2ccccc12)NC(=O)[C@H](CCCCNC(=O)COCCOCCNC(=O)COCCOCCNC(=O)CC[C@H](NC(=O)CC[C@H](NC(=O)CCCCCCCCCCCCCCCCCCC(=O)O)C(=O)O)C(=O)O)NC(=O)[C@@H](NC(=O)[C@](C)(Cc1ccccc1)NC(=O)[C@H](CC(=O)O)NC(=O)[C@H](CCC(N)=O)NC(=O)[C@H](C)NC(=O)[C@H](C)NC(=O)[C@H](CCCNC(=N)N)NC(=O)[C@H](CO)NC(=O)[C@H](CC(=O)O)NC(=O)[C@H](CC(C)C)NC(=O)[C@](C)(Cc1ccccc1)NC(=O)[C@H](CCCCN)NC(=O)[C@H](CO)NC(=O)[C@@H](NC(=O)[C@H](CC(=O)O)NC(=O)[C@H](CO)NC(=O)[C@@H](NC(=O)[C@](C)(Cc1ccccc1)NC(=O)[C@H](CO)NC(=O)CNC(=O)[C@H](Cc1c[nH]cn1)NC(=O)C(C)(C)NC(=O)[C@@H](N)Cc1c[nH]cn1)[C@@H](C)O)C(C)C)C(C)C)C(=O)N[C@@H](C)C(=O)N[C@@H](CC(N)=O)C(=O)N[C@H](C(N)=O)[C@@H](C)O` [Peptide 374] (H-H[Aib]HGS[αMeF]TSDVSK[αMeF]LDSRAAQD[αMeF]VK([AEEA-AEEA-γGlu-γGlu-C20 diacid])WIANT-NH2; N-terminus assumed), the “% Relative Potency Ratio” value came out at 1.2.
In the case of `CC[C@H](C)[C@H](NC(=O)[C@H](Cc1c[nH]c2ccccc12)NC(=O)[C@H](CCCCNC(=O)COCCOCCNC(=O)COCCOCCNC(=O)CC[C@H](NC(=O)CC[C@H](NC(=O)CCCCCCCCCCCCCCCCC(=O)O)C(=O)O)C(=O)O)NC(=O)[C@@H](NC(=O)[C@](C)(Cc1ccccc1)NC(=O)[C@H](CC(=O)O)NC(=O)[C@H](CCC(N)=O)NC(=O)[C@H](C)NC(=O)[C@H](C)NC(=O)[C@H](CCCNC(=N)N)NC(=O)[C@H](CO)NC(=O)[C@H](CC(=O)O)NC(=O)[C@H](CC(C)C)NC(=O)[C@](C)(Cc1ccccc1)NC(=O)[C@H](CCCCN)NC(=O)[C@H](CO)NC(=O)[C@@H](NC(=O)[C@H](CC(=O)O)NC(=O)[C@H](CO)NC(=O)[C@@H](NC(=O)[C@](C)(Cc1ccccc1)NC(=O)[C@H](CO)NC(=O)CNC(=O)[C@H](Cc1c[nH]cn1)NC(=O)C(C)(C)NC(=O)[C@@H](N)Cc1c[nH]cn1)[C@@H](C)O)C(C)C)C(C)C)C(=O)N[C@@H](C)C(=O)N[C@@H](CC(N)=O)C(=O)N[C@H](C(N)=O)[C@@H](C)O` [Peptide 371] (H-H[Aib]HGS[αMeF]TSDVSK[αMeF]LDSRAAQD[αMeF]VK([AEEA-AEEA-γGlu-γGlu-C18 diacid])WIANT-NH2; N-terminus assumed), the “% Relative Potency Ratio” value was 0.9.

Staying with this experiment, now noted: Table 9; % GLP-1R activity relative to GLP-1 / % GlucR activity relative to glucagon.
For the molecule “H(Aib)HGS(αMePhe)TSDK(O2OC-O2OC-γE-γE-C20diacid)10SK(αMePhe)LDSRAAQD(αMePhe)VQ(Aib)IANT-amide [Peptide 391]”, the “% Relative Potency Ratio” value is listed as 49.1.

Values taken from patent US12630600B2 (MEDIMMUNE LIMITED, priority 2022, dated 2026).
